# Results: paper PMC5321741, “Arylmethylamino steroids as antiparasitic agents” (Nature Communications, 2017)
# Read-outs that look alike come from different tables or passages of the source.
# Tests used:
# [1] = in vivo; parameters: species or system C57BL/6 mice; conditions: C57BL/6, mouse
# Method: The compound was applied at an accumulative dose of 100 mg kg^−1 (per os (p.o.). as well as intraperitoneally (i.p.)). The first application was 5 mg kg^−1, 2 h later 15 mg kg^−1, 2 h later 30 mg kg^−1 and again 2 h later 50 mg kg^−1. […] Moreover, we performed pharmacokinetics studies in mice, dosing i.v., i.p. and p.o. (Supplementary Table 5). […] In contrast, high exposure and sustained levels of ∼2 μM were obtained after i.p. dosing at 100 mg kg^−1.
# Parameter (n=3/time point)
# Supplementary Table 5. Mouse pharmacokinetics of compound 1o.
# [2] = molecular target: T1, recombinant protein hGrx1-roGFP2 (Homo sapiens, UniProt P35754); assay: in vitro interaction with recombinant redox probe; type: biochemical; conditions: 10 nM to 100 µM, 4 h and 24 h
# T1 construct: made in house
# Method: (2) Chromogenic precipitating substrates following a poly-condensation (so called “polymerization”) pathway, which is tuneable by utilizing metal catalytic effects via introduction of metal chelating groups.32-33 […]
# Heterologous overexpression of hGrx1-roGFP2 and in vitro measurements with the recombinant protein were carried out as described45 with minor modifications. […] The emission of hGrx1-roGFP2 (510 nm) after excitation at 405 nm and 475 nm was measured in a plate reader (Clariostar, BMG Labtech) with optimal read settings. The ratio of the fluorescence […]
# signals at 405/475 nm were calculated and plotted against time and/or concentration of compound 1o or redox active compounds. […]
# 100 µM for 4 h and 24 h incubations. Transfection of the Pf3D7 strain with the redox sensor was carried out, and the parasites were cultured as described under constant drug pressure with 5 nM WR99210 (Jacobus Pharmaceuticals, New Jersey, USA).45,46 P. falciparum trophozoites were enriched via magnet separation.47 Parasitemia was counted by using Giemsa-stained blood smears. […] (6-8% parasitemia) were magnetically enriched (Miltenyi Biotec, Germany), counted by using the improved Neubauer hemocytometer (Brand GmbH, Germany), and returned to cell culture (at 0.5 x 10^6 trophozoites/µl) for at least 1 h to recover. […]
# [3] = aqueous kinetic solubility; type: physicochemical; conditions: kinetic from dmso stock
# Method: Pharmacokinetic data were obtained for compound 1o at the Sanford-Burnham Medical Research Institute according to established procedures. Compound solubility in an aqueous solution was measured using an automated kinetic solubility method. The concentration of the compound in a saturated pH-buffered aqueous solution was determined via UV absorbance (250–498 nm) and compared with the spectra of a precipitation-free reference solution. The plasma stability of the compound was determined at a single concentration using species-specific plasma. The percentage of parent compound remaining after 3 h was determined via LC-MS/MS. The percentage of compound 1o bound to plasma proteins was determined through rapid equilibrium dialysis and quantified via LC-MS/MS. Metabolic stability of the compound was determined at a single concentration using species-specific liver microsomes that contained cytochrome P450s, flavin-monooxygenases, carboxyl-esterases, epoxide hydrolases, and other drug-metabolizing enzymes. The quantification was carried out via LC-MS/MS. Membrane permeability of compound 1o was measured using an in vitro model for the passive transport from the gastrointestinal tract into the blood system. A double-sink parallel artificial membrane permeability assay PAMPA, in a 96-well format was employed.
smiles,measurement,setting,value
COc1ccc2c(c1)CCC1C2CC[C@@]2(C)C1CC[C@H]2NCc1cc2ccccc2cc1O (some centres unmarked) [1o],AUC(0-t),"[1]; ip, 100 mg/kg",13000 ng·h/mL
same,Cmax,"[1]; ip, 100 mg/kg",850 ng/mL
same,Tmax,"[1]; ip, 100 mg/kg",3 h
same,bioavailability,"[1]; ip, 100 mg/kg",24%
same,half-life,"[1]; ip, 100 mg/kg",> 8 h
same,AUC(0-t),"[1]; iv, 1 mg/kg",567 ng·h/mL
same,Vd,"[1]; iv, 1 mg/kg",6.4 L/kg
same,clearance,"[1]; iv, 1 mg/kg",29.6 mL/min/kg
same,half-life,"[1]; iv, 1 mg/kg",> 8 h
same,AUC(0-t),"[1]; po, 100 mg/kg",622 ng·h/mL
same,Cmax,"[1]; po, 100 mg/kg",43 ng/mL
same,Tmax,"[1]; po, 100 mg/kg",8.25 h
same,bioavailability,"[1]; po, 100 mg/kg",< 5%
same,half-life,"[1]; po, 100 mg/kg",> 8 h
same,direct interaction with recombinant hGrx1-roGFP2,[2],No direct interaction was detected
same,solubility,"[3]; Pion's buffer, aqueous buffer, pH 5.0, read-out: Aqueous Solubility (Pion's Buffer)",0.26 µg/mL
same,solubility,"[3]; Pion's buffer, pH 6.2, aqueous buffer, read-out: Aqueous Solubility (Pion's Buffer)",0.38 µg/mL
same,solubility,"[3]; Pion's buffer, pH 7.4, aqueous buffer, read-out: Aqueous Solubility (Pion's Buffer)",0.3 µg/mL
same,solubility kinetic,"[3]; pH-buffered aqueous solution, aqueous buffer, across a range of pH",< 2.3 µM
same,solubility,"[3]; pH-buffered aqueous solution, aqueous buffer, across a range of pH, read-out: aqueous solubility",< 1 µg/mL
